# Results published in patent publication US4033721A, “Analysis of gentian violet residue in tissue” (priority 1976, dated 1977).
# “And” between values parts separate entries of the source, which are not always exact repeats. Identical values can stand only once.
# Test: Residual 14C-gentian violet in tissues of cockerels after repeated oral administration (Example 26)
# Details: for 14C dpm/Organ / 14C dpm/gram / ug/gram (ppm) in organ: individual bird; for Mean tissue residue: oral; for Mean tissue residue, mean of two values without the sport: 2.5 mg/kg
smiles,measurement,setting,value
CN(C)c1ccc(C(=C2C=CC(=[N+](C)C)C=C2)c2ccc(N(C)C)cc2)cc1 [^14 C-gentian violet],Residue 72 hrs. post-dose,breast muscle,0.012 ppm
same,Residue 72 hrs. post-dose,gizzard muscle,0.002 ppm
same,Residue 72 hrs. post-dose,heart muscle,0.007 ppm
same,14C dpm/Organ,"kidneys, 1X dose, 4 hours","2,863 dpm/Organ and 4,271 dpm/Organ and 2,272 dpm/Organ"
same,14C dpm/gram,"kidneys, 1X dose, 4 hours","1,184 dpm/gram and 1,634 dpm/gram and 1,269 dpm/gram"
same,ug/gram (ppm) in organ,"kidneys, 1X dose, 4 hours, 240 min",0.089 ppm and 0.123 ppm and 0.095 ppm
same,14C dpm/Organ,"kidneys, 1X dose, 12 hours","1,746 dpm/Organ and 1,696 dpm/Organ and 3,452 dpm/Organ"
same,14C dpm/gram,"kidneys, 1X dose, 12 hours","820 dpm/gram and 764 dpm/gram and 1,561 dpm/gram"
same,ug/gram (ppm) in organ,"kidneys, 1X dose, 12 hours, 720 min",0.062 ppm and 0.057 ppm and 0.117 ppm
same,14C dpm/Organ,"kidneys, 1X dose, 24 hours","2,705 dpm/Organ and 1,481 dpm/Organ and 1,644 dpm/Organ"
same,14C dpm/gram,"kidneys, 1X dose, 24 hours","1,463 dpm/gram and 639 dpm/gram and 561 dpm/gram"
same,ug/gram (ppm) in organ,"kidneys, 1X dose, 24 hours, 1440 min",0.110 ppm and 0.048 ppm and 0.042 ppm
same,14C dpm/Organ,"kidneys, 1X dose, 48 hours","1,186 dpm/Organ and 863 dpm/Organ"
same,14C dpm/gram,"kidneys, 1X dose, 48 hours",511 dpm/gram and 527 dpm/gram
same,ug/gram (ppm) in organ,"kidneys, 1X dose, 48 hours, 2880 min",0.038 ppm and 0.040 ppm
same,14C dpm/Organ,"kidneys, 1X dose, 72 hours",972 dpm/Organ and 759 dpm/Organ
same,14C dpm/gram,"kidneys, 1X dose, 72 hours",333 dpm/gram and 289 dpm/gram
same,ug/gram (ppm) in organ,"kidneys, 1X dose, 72 hours, 4320 min",0.025 ppm and 0.022 ppm
same,14C dpm/Organ,"kidneys, 5X dose, 4 hours","11,116 dpm/Organ and 9,227 dpm/Organ and 8.867 dpm/Organ and 12,505 dpm/Organ"
same,14C dpm/gram,"kidneys, 5X dose, 4 hours","9,183 dpm/gram and 4,798 dpm/gram and 4,729 dpm/gram and 6,658 dpm/gram"
same,ug/gram (ppm) in organ,"kidneys, 5X dose, 4 hours, 240 min",0.691 ppm and 0.361 ppm and 0.356 ppm and 0.501 ppm
same,14C dpm/Organ,"kidneys, 5X dose, 12 hours","11,939 dpm/Organ and 6,796 dpm/Organ and 6,537 dpm/Organ and 5,712 dpm/Organ and 7,815 dpm/Organ"
same,14C dpm/gram,"kidneys, 5X dose, 12 hours","5,250 dpm/gram and 3,258 dpm/gram and 3,060 dpm/gram and 2,334 dpm/gram and 3,855 dpm/gram"
same,ug/gram (ppm) in organ,"kidneys, 5X dose, 12 hours, 720 min",0.395 ppm and 0.245 ppm and 0.230 ppm and 0.176 ppm and 0.290 ppm
same,14C dpm/Organ,"kidneys, 5X dose, 24 hours","6,185 dpm/Organ and 6,443 dpm/Organ and 7,315 dpm/Organ and 3,623 dpm/Organ"
same,14C dpm/gram,"kidneys, 5X dose, 24 hours","3,002 dpm/gram and 2,961 dpm/gram and 3,751 dpm/gram and 1,463 dpm/gram"
same,ug/gram (ppm) in organ,"kidneys, 5X dose, 24 hours, 1440 min",0.226 ppm and 0.223 ppm and 0.282 ppm and 0.110 ppm
same,14C dpm/Organ,"kidneys, 5X dose, 48 hours","2,197 dpm/Organ and 3,750 dpm/Organ and 2,882 dpm/Organ"
same,14C dpm/gram,"kidneys, 5X dose, 48 hours","982 dpm/gram and 1,647 dpm/gram and 1,508 dpm/gram"
same,ug/gram (ppm) in organ,"kidneys, 5X dose, 48 hours, 2880 min",0.074 ppm and 0.124 ppm and 0.113 ppm
same,14C dpm/Organ,"kidneys, 5X dose, 72 hours","4,998 dpm/Organ and 1,843 dpm/Organ and 1,792 dpm/Organ"
same,14C dpm/gram,"kidneys, 5X dose, 72 hours","4,044 dpm/gram and 844 dpm/gram and 1,042 dpm/gram"
same,ug/gram (ppm) in organ,"kidneys, 5X dose, 72 hours, 4320 min",0.304 ppm and 0.067 ppm and 0.078 ppm
same,14C dpm/Organ,"liver, 1X dose, 4 hours","21,804 dpm/Organ and 36,280 dpm/Organ and 16,323 dpm/Organ"
same,14C dpm/gram,"liver, 1X dose, 4 hours","3,084 dpm/gram and 5,753 dpm/gram and 2,493 dpm/gram"
same,ug/gram (ppm) in organ,"liver, 1X dose, 4 hours, 240 min",0.232 ppm and 0.433 ppm and 0.188 ppm
same,14C dpm/Organ,"liver, 1X dose, 12 hours","5,477 dpm/Organ and 5,889 dpm/Organ and 19,188 dpm/Organ"
same,14C dpm/gram,"liver, 1X dose, 12 hours","996 dpm/gram and 927 dpm/gram and 2,857 dpm/gram"
same,ug/gram (ppm) in organ,"liver, 1X dose, 12 hours, 720 min",0.075 ppm and 0.070 ppm and 0.215 ppm
same,14C dpm/Organ,"liver, 1X dose, 24 hours","14,586 dpm/Organ and 5,165 dpm/Organ and 7,248 dpm/Organ"
same,14C dpm/gram,"liver, 1X dose, 24 hours","2,890 dpm/gram and 830 dpm/gram and 851 dpm/gram"
same,ug/gram (ppm) in organ,"liver, 1X dose, 24 hours, 1440 min",0.217 ppm and 0.062 ppm and 0.064 ppm
same,14C dpm/Organ,"liver, 1X dose, 48 hours","8,396 dpm/Organ and 6,073 dpm/Organ"
same,14C dpm/gram,"liver, 1X dose, 48 hours","1,419 dpm/gram and 1,292 dpm/gram"
same,ug/gram (ppm) in organ,"liver, 1X dose, 48 hours, 2880 min",0.107 ppm and 0.097 ppm
same,14C dpm/Organ,"liver, 1X dose, 72 hours","7,261 dpm/Organ and 3,744 dpm/Organ"
same,14C dpm/gram,"liver, 1X dose, 72 hours",546 dpm/gram and 361 dpm/gram
same,ug/gram (ppm) in organ,"liver, 1X dose, 72 hours, 4320 min",0.041 ppm and 0.027 ppm
same,14C dpm/Organ,"liver, 5X dose, 4 hours","44,618 dpm/Organ and 50,607 dpm/Organ and 42,844 dpm/Organ and 46,652 dpm/Organ"
same,14C dpm/gram,"liver, 5X dose, 4 hours","13,878 dpm/gram and 9,859 dpm/gram and 8,038 dpm/gram and 9,651 dpm/gram"
same,ug/gram (ppm) in organ,"liver, 5X dose, 4 hours, 240 min",1.044 ppm and 0.742 ppm and 0.605 ppm and 0.726 ppm
same,14C dpm/Organ,"liver, 5X dose, 12 hours","66,438 dpm/Organ and 24,948 dpm/Organ and 17,753 dpm/Organ and 26,299 dpm/Organ and 68,033 dpm/Organ"
same,14C dpm/gram,"liver, 5X dose, 12 hours","11,801 dpm/gram and 4,135 dpm/gram and 3,201 dpm/gram and 3,772 dpm/gram and 10,291 dpm/gram"
same,ug/gram (ppm) in organ,"liver, 5X dose, 12 hours, 720 min",0.888 ppm and 0.311 ppm and 0.241 ppm and 0.284 ppm and 0.774 ppm
same,14C dpm/Organ,"liver, 5X dose, 24 hours","60,300 dpm/Organ and 67,384 dpm/Organ and 68,033 dpm/Organ and 20,674 dpm/Organ"
same,14C dpm/gram,"liver, 5X dose, 24 hours","9.588 dpm/gram and 10,942 dpm/gram and 12,714 dpm/gram and 2,845 dpm/gram"
same,ug/gram (ppm) in organ,"liver, 5X dose, 24 hours, 1440 min",0.721 ppm and 0.823 ppm and 0.957 ppm and 0.215 ppm
same,14C dpm/Organ,"liver, 5X dose, 48 hours","15,334 dpm/Organ and 27,176 dpm/Organ and 13,617 dpm/Organ"
same,14C dpm/gram,"liver, 5X dose, 48 hours","2,649 dpm/gram and 5,220 dpm/gram and 3,102 dpm/gram"
same,ug/gram (ppm) in organ,"liver, 5X dose, 48 hours, 2880 min",0.199 ppm and 0.393 ppm and 0.233 ppm
same,14C dpm/Organ,"liver, 5X dose, 72 hours","45,587 dpm/Organ and 10,991 dpm/Organ and 13,245 dpm/Organ"
same,14C dpm/gram,"liver, 5X dose, 72 hours","21,927 dpm/gram and 2,447 dpm/gram and 2,991 dpm/gram"
same,ug/gram (ppm) in organ,"liver, 5X dose, 72 hours, 4320 min",1.650 ppm and 0.184 ppm and 0.225 ppm
same,Residue 72 hrs. post-dose,kidney,0.024 ppm
same,Elimination Rate Constant (Ke),"kidneys, 1X dose",-0.0209 h⁻¹
same,Mean tissue residue,"kidneys, 1X dose (0.5 mg/kg), 4 hrs. post-dose",0.102 ppm
same,Mean tissue residue,"kidneys, 1X dose (0.5 mg/kg), 12 hrs. post-dose",0.079 ppm
same,Mean tissue residue,"kidneys, 1X dose (0.5 mg/kg), 24 hrs. post-dose",0.067 ppm
same,Mean tissue residue,"kidneys, 1X dose (0.5 mg/kg), 48 hrs. post-dose",0.039 ppm
same,Mean tissue residue,"kidneys, 1X dose (0.5 mg/kg), 72 hrs. post-dose",0.024 ppm
same,Elimination Rate Constant (Ke),"kidneys, 5X dose",-0.0262 h⁻¹
same,Half-Life (t1/2),"kidneys, 5X dose",26.7 h
same,Mean tissue residue,"kidneys, 5X dose (2.5 mg/kg), 4 hrs. post-dose",0.477 ppm
same,Mean tissue residue,"kidneys, 5X dose (2.5 mg/kg), 12 hrs. post-dose",0.267 ppm
same,Mean tissue residue,"kidneys, 5X dose (2.5 mg/kg), 24 hrs. post-dose",0.210 ppm
same,Mean tissue residue,"kidneys, 5X dose (2.5 mg/kg), 48 hrs. post-dose",0.104 ppm
same,Mean tissue residue,"kidneys, 5X dose (2.5 mg/kg), 72 hrs. post-dose, includes a sport, high value among three",0.150 ppm
same,"Mean tissue residue, mean of two values without the sport","kidneys, 5X dose, 72 hrs. post-dose",0.073 ppm
same,Residue 72 hrs. post-dose,liver,0.034 ppm
same,Mean tissue residue,"liver, 1X dose (0.5 mg/kg), 4 hrs. post-dose",0.284 ppm
same,Mean tissue residue,"liver, 1X dose (0.5 mg/kg), 12 hrs. post-dose",0.120 ppm
same,Mean tissue residue,"liver, 1X dose (0.5 mg/kg), 24 hrs. post-dose",0.114 ppm
same,Mean tissue residue,"liver, 1X dose (0.5 mg/kg), 48 hrs. post-dose",0.102 ppm
same,Mean tissue residue,"liver, 1X dose (0.5 mg/kg), 72 hrs. post-dose",0.034 ppm
same,Mean tissue residue,"liver, 5X dose (2.5 mg/kg), 4 hrs. post-dose",0.779 ppm
same,Mean tissue residue,"liver, 5X dose (2.5 mg/kg), 12 hrs. post-dose",0.500 ppm
same,Mean tissue residue,"liver, 5X dose (2.5 mg/kg), 24 hrs. post-dose",0.679 ppm
same,Mean tissue residue,"liver, 5X dose (2.5 mg/kg), 48 hrs. post-dose",0.275 ppm
same,Mean tissue residue,"liver, 5X dose (2.5 mg/kg), 72 hrs. post-dose, includes a sport, high value among three",0.686 ppm
same,"Mean tissue residue, mean of two values without the sport","liver, 5X dose, 72 hrs. post-dose",0.205 ppm
same,Elimination Rate Constant (Ke),"livers, 1X dose",-0.0247 h⁻¹
same,Half-Life (t1/2),"livers, 1X dose",28.0 h
same,Elimination Rate Constant (Ke),"livers, 5X dose",-0.0193 h⁻¹
same,Half-Life (t1/2),"livers, 5X dose",35.9 h
same,Residue 72 hrs. post-dose,skin/fat,0.016 ppm
same,Residue 72 hrs. post-dose,thigh muscle,0.012 ppm
